Measurements from patent US20250263404A1, “AMINOPYRIDINES AS ACTIVATORS OF PI3 KINASE” (UCL Business Ltd, priority 2021, published 2025).

Assays:
E545K mutant of p110α = biological target: T1, E545K mutant of p110α (Homo sapiens, UniProt P42336, E545K); assay: ADP-Glo kinase assay, oncogenic mutant E545K; type: biochemical; details: mutant insensitive to pY
T1 construct: Full-length p110α was expressed in a complex with full-length p85α (for biochemistry and HDX-MS); 6xHis followed by TEV protease site (N); made in house; host or cells: Spodoptera frugiperda Sf9 (plasmid OP663)
Method: Co-stimulation of 1938 with pY led to an additive activatory effect for G106V, but not for the N345K and E545K mutants (FIG. 1f/FIG. 22f).
Kinase reactions were performed with ADP-Glo kinase assay kit (Promega Corporation). The enzyme, substrate and compounds were diluted in reaction buffer (20 mM HEPES, 50 mM NaCl, 50 mM KCl, 3 mM MgCl2, 1 mM EGTA, 1 mM TCEP, pH 7.4). Final concentrations of PI3Kα and PI3Kδ used were 25 nM and 50 nM for PI3Kβ. Liposomes (5% brain PI(4,5)P2, 20% brain phosphatidylserine, 45% brain phosphatidylethanolamine, 15% brain phosphatidylcholine, 10% cholesterol, 5% sphingomyelin (Avanti Polar Lipids)) were used at a final concentration of 1 mg/ml. The pY sequence is ESDGG(pY)[…](pY)[…].
For characterisation of the effects of 1938 on in vitro PI3K enzymology, all reactions were performed at room temperature with 384 white-polystyrene plates (Corning #3574). The final DMSO concentration in the assay was between 0.5%-1.8%. The reaction mixture contained 2 μl PI3K enzyme, 2 μl compound and/or pY and 2 μl of liposome substrate mixed with ATP. ATP was used at a final concentration of 200 μM, unless otherwise stated. The enzyme and compounds were pre-incubated for 10 min prior to addition of substrate. […] For enzyme kinetic calculations, data was expressed as velocity (pmol of ADP generated/sec). […]

[1] = system: PIP3 levels in A549 cells; assay: PIP3 measurement by mass spectrometry in A549 cells; type: cell-based, human; details: 2 min
Method: FIG. 21. a, MEFs were stimulated for the indicated time points with 1938 (5 μM) or for 2 min with PDGF (20 ng/ml) or insulin (100 nM), followed by lipid extraction and PIP3 measurement by mass spectrometry. b, MEFs were stimulated for 2 min with increasing doses of 1938 or PDGF, followed by lipid extraction and PIP3 measurement by mass spectrometry. c, A549 cells were stimulated for 2 min with increasing doses of 1938 or insulin, or 10 ng/ml PDGF, followed by lipid extraction and PIP3 measurement by mass spectrometry. […] These maximal 1938-induced PIP3 levels are below those required to give rise to sufficient PI(3,4)P2 to be detectable by mass spectrometry, a conclusion also supported by the observation that substantial levels of PIP3 induced by lower doses of PDGF (e.g. 0.5 ng/ml) were also not sufficient to give rise to levels of PI(3,4)P2 detectable by mass. […] A strong PIP3 response was also observed with insulin in these cells, with no PIP3 induced by PDGF, in line with the absence of this receptor in epithelial cells, including in A549.

BRK = BRK (Homo sapiens, UniProt Q13882); assay: SelectScreen kinase profiling, BRK; type: biochemical; details: 1 μM of 1938, 75 μM ATP
Method: 133 protein kinases and 7 lipid kinases were counterscreened, with […] used at 1 μM, using the Adapta, Lantha and Z-LYTE assays (SelectScreen Kinase Profiling Service; Thermofisher—experimental details of these assays can be found here: https://www.thermofisher.com/uk/en/home/industrial/pharma-biopharma/drug-discovery-development/target-and-lead-identification-and-validation/kinasebiology/kinase-activity-assays.html. The tree representation in KinMap generated courtesy of Cell Signaling Technology, Inc. (www.cellsignal.com). mTORC1 (mTOR/RAPTOR/LST8) protein complex and ATM kinase and substrates were produced as previously described (Anandapadamanaban, M. et al. Science (New York, NY 366, 203-210 (2019); Baretic, D. et al. Sci Adv 3, e1700933 (2017). Screening of 1938 was conducted using SuperSep Phos-Tag 50 μmol/l 100×100×6.6 mm 17-well (192-18001/199-18011) gels. For ATM assays, 100 nM ATM was incubated for 30 min at 30° C. with 5 μM GST-p53 and 1 mM ATP, in the absence or presence of 200 μM 1938 in ATM Kinase Buffer (50 mM HEPES pH 7.5, 100 mM NaCl, 10% glycerol, 2 mM […], 5 mM MgCl2). […] Gels were then stained using InstantBlue™ Coomassie stain, and then quantified using BioRad Image Lab Software. […]

T1 sequence (P42336 whole entry E545K): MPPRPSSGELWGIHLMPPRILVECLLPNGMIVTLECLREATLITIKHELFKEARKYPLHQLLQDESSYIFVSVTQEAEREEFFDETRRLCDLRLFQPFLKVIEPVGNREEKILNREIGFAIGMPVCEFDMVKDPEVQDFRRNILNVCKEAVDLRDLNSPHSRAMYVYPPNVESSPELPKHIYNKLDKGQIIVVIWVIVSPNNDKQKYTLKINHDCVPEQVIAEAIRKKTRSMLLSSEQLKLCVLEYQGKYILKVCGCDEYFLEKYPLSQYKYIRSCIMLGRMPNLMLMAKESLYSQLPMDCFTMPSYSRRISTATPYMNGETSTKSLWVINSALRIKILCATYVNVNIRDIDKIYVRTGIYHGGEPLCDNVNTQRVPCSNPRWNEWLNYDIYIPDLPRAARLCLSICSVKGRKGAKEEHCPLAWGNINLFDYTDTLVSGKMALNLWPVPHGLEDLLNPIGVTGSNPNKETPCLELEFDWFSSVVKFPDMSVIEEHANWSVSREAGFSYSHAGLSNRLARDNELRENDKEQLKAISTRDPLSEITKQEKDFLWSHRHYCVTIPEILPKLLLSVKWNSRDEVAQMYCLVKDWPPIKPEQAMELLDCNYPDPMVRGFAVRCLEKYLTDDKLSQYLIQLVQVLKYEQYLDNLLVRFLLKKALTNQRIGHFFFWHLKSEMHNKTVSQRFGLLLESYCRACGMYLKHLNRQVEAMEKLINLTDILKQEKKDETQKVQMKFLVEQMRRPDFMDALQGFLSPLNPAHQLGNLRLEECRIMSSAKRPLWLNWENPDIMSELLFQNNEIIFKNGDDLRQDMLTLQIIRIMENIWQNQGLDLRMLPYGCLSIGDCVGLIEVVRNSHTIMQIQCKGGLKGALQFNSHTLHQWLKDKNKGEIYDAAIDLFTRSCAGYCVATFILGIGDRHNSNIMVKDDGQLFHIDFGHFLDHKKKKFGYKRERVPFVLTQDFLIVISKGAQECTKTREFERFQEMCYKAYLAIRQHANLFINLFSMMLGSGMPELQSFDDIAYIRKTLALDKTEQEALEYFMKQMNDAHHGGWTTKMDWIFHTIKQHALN
T1 sequence (P27986 whole entry partner): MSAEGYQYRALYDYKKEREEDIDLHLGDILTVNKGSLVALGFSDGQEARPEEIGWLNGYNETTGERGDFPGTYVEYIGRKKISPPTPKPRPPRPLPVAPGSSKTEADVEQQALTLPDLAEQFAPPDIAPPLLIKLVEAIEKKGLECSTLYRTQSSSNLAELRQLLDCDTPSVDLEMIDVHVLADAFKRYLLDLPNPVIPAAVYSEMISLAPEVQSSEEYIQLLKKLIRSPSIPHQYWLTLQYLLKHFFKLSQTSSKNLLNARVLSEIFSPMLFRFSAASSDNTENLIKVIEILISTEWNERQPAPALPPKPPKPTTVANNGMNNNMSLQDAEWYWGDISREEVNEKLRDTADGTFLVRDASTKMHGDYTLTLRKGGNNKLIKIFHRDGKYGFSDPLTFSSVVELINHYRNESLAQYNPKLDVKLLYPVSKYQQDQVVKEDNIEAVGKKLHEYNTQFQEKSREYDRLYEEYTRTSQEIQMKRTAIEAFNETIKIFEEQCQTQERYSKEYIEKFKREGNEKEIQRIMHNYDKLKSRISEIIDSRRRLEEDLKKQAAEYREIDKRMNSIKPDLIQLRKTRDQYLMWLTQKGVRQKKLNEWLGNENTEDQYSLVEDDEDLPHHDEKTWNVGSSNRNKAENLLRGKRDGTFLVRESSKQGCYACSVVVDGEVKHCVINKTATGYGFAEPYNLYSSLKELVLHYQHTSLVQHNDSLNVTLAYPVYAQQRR
Sequence of BRK (Q13882 whole entry): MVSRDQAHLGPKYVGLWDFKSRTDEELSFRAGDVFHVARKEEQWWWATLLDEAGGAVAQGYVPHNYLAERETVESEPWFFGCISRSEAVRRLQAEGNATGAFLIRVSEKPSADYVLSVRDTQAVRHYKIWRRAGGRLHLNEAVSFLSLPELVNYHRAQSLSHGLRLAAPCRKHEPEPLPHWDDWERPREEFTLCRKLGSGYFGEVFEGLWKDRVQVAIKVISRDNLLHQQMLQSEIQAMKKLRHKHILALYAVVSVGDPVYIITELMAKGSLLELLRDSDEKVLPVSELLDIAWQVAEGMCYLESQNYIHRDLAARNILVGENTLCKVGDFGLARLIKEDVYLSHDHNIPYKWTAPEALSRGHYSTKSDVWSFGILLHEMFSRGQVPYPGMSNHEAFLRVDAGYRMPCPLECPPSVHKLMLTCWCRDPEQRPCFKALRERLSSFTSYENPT

CCN1CCN(c2ccc(Nc3cc(Nc4cccc5c4N(C(C)=O)CC5)ccn3)cc2)CC1 [Example 1938]
activation of E545K mutant (E545K mutant of p110α): further activated
concentration at which PIP3 response maxed out [1]: 10 µM
inhibition of BRK (BRK): 56%
